Laboratory results as given in US10822348B2, “Inhibitors of Bruton's tyrosine kinase and methods of their use” (JANSSEN PHARMACEUTICA NV, priority 2015, dated 2020).

target: unphosphorylated-BTK kinase domain (UP-BTK), GST-tagged human BTK (389-659aa) (Homo sapiens (Human), UniProt Q06187); assay: BTK kinase Lanthascreen binding assay; details: negative log of the IC50 in molar; 60 minutes incubation, 50 nM Tracer 236
Procedure: BTK Kinase Lanthascreen Binding Assay:
A BTK kinase lanthascreen binding assay monitors compound binding to unphosphorylated-BTK kinase domain (UP-BTK), by competing with a fluorescent labeled tracer. […] Data were analyzed using Xlfit™ version 5.3 from ID Business Solutions (Guildford), Microsoft Excel add-in. pIC50 refers to the negative log of the IC50 in molar.

unphosphorylated-BTK kinase domain (UP-BTK), GST-tagged human BTK (389-659aa), sequence (Q06187 389-659): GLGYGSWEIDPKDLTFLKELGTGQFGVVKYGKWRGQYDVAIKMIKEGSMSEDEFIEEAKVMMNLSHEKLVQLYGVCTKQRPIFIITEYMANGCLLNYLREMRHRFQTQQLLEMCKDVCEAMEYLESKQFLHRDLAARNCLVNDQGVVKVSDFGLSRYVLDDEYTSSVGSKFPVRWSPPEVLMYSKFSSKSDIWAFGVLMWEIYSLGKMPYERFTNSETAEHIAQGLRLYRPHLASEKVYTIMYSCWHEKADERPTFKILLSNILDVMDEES

Structure (SMILES) | BTK_I_binding pIC50
C=CC(=O)N1CCC[C@@H](NC(=O)c2sc3nccc4c3c2NC(=O)N4c2ccc(Oc3ccccc3)cc2C)C1 (single isomer, unassigned) [Example 9, (R)—N-(1-Acryloylpiperidin-3-yl)-5-(*S)-(2-methyl-4-phenoxyphenyl)-4-oxo-4,5-dihydro-3H-1-thia-3,5,8-triazaacenaphthylene-2-carboxamide] | 8.1

same assay, conditions: read-out: BTK_I_binding pIC50 (converted)

Structure (SMILES) | IC50 [nM]
C=CC(=O)N1C[C@@H](O)C[C@@H](NC(=O)c2sc3nccc4c3c2NC(=O)N4c2ccc(Oc3ccccc3)cc2C)C1 (single isomer, unassigned) [Example 2, N-((3R,5S)-1-Acryloyl-5-hydroxypiperidin-3-yl)-5-(*S)-(2-methyl-4-phenoxyphenyl)-4-oxo-4,5-dihydro-3H-1-thia-3,5,8-triazaacenaphthylene-2-carboxamide] | 6.31

same assay, conditions: unphosphorylated-BTK kinase domain; 60 minutes incubation; pIC50 = negative log of the IC50 in molar

Structure (SMILES) | BTK_I_binding pIC50
C=CC(=O)N1C[C@H](O)C[C@@H](NC(=O)c2sc3nccc4c3c2NC(=O)N4c2ccc(Oc3ccccc3)cc2C)C1 (relative stereo) [Example 483, N-((3R,5R)-1-Acryloyl-5-hydroxypiperidin-3-yl)-5-(*S)-(2-methyl-4-phenoxyphenyl)-4-oxo-4,5-dihydro-3H-1-thia-3,5,8-triazaacenaphthylene-2-carboxamide] | 8.4
C=CC(=O)N1C[C@H](NC(=O)c2sc3nccc4c3c2NC(=O)N4c2ccc(Oc3ccccc3)cc2C)[C@@H](F)C1 (relative stereo) [Example 486, N-((3S,4S)-1-Acryloyl-4-fluoropyrrolidin-3-yl)-5-(*S)-(2-methyl-4-phenoxyphenyl)-4-oxo-4,5-dihydro-3H-1-thia-3,5,8-triazaacenaphthylene-2-carboxamide] | 7.8
C=CC(=O)N1C[C@H](NC(=O)c2sc3nccc4c3c2NC(=O)N4c2ccc(Oc3ccccc3)cc2C)[C@@H](OC)C1 (relative stereo) [Example 490, N-((3S,4S)-1-Acryloyl-4-methoxypyrrolidin-3-yl)-5-(*S)-(2-methyl-4-phenoxyphenyl)-4-oxo-4,5-dihydro-3H-1-thia-3,5,8-triazaacenaphthylene-2-carboxamide] | 7.7
C=CC(=O)N1C[C@H](NC(=O)c2sc3nccc4c3c2NC(=O)N4c2ccc(Oc3ccccc3)cc2C)[C@H](OC)C1 (relative stereo) [Example 508, N-((3S,4R)-1-Acryloyl-4-methoxypyrrolidin-3-yl)-5-(*S)-(2-methyl-4-phenoxyphenyl)-4-oxo-4,5-dihydro-3H-1-thia-3,5,8-triazaacenaphthylene-2-carboxamide] | 7.7

Further lines, results first:

BTK_I_binding pIC50 | Structure (SMILES)
8.2 | C=CC(=O)N1C[C@H](NC(=O)c2sc3nccc4c3c2NC(=O)N4c2ccc(Oc3ccccc3)cc2C)C[C@@H](OC)C1 (relative stereo) [Example 481, N-((3R,5R)-1-Acryloyl-5-methoxypiperidin-3-yl)-5-(*S)-(2-methyl-4-phenoxyphenyl)-4-oxo-4,5-dihydro-3H-1-thia-3,5,8-triazaacenaphthylene-2-carboxamide]
8.0 | C=CC(=O)N1C[C@H](NC(=O)c2sc3nccc4c3c2NC(=O)N4c2ccc(Oc3ccccc3)cc2C)C[C@H](OC)C1 (relative stereo) [Example 482, N-((3R,5S)-1-Acryloyl-5-methoxypiperidin-3-yl)-5-(*S)-(2-methyl-4-phenoxyphenyl)-4-oxo-4,5-dihydro-3H-1-thia-3,5,8-triazaacenaphthylene-2-carboxamide]
8.0 | C=CC(=O)N1C[C@@H](F)C[C@@H](NC(=O)c2sc3nccc4c3c2NC(=O)N4c2ccc(Oc3ccccc3)cc2C)C1 (relative stereo) [Example 484, N-((3R,5S)-1-Acryloyl-5-fluoropiperidin-3-yl)-5-(*S)-(2-methyl-4-phenoxyphenyl)-4-oxo-4,5-dihydro-3H-1-thia-3,5,8-triazaacenaphthylene-2-carboxamide]
